Test results: US9068017B2, “Compositions and methods for inhibiting terminal transferase activity” (IBIS BIOSCIENCES, INC., priority 2010, dated 2015)

Tested on: polymerase having terminal transferase activity
Experimental: PCR products with and without boric acid added to PCR components and reagents prior to thermal cycling steps were compared. Stock boric acid was dissolved in 50% primer dilution buffer and added to PCR reactions for a final concentration of 100 mM boric acid and 200 mM boric acid.

What does the source list for `OB(O)O` [boric acid]?
3′ non-template addition of amplicons resulting from polymerase dependent terminal transferase activity (addition of boric acid to amplification reactions, summary statement, no concentration given): reduced 3′ non-template addition; non-template addition on forward and reverse strands of PCR products (boric acid added before thermal cycling, final concentration 100 mM and 200 mM, mass spectrometry (FIG. 1), non-template addition identified in absence of boric acid): undetectable non-template addition on both the forward and reverse strands
